Series [1] in a line: Water solubility of delivery agent.
For series [2] the following is noted: in vivo.

On to `O=C(O)CCCCCCCNC(=O)c1cc(Cl)ccc1O` [5 CNAC, N-(5-chlorosalicyloyl)-8-aminocaprylic acid], for which the water solubility entry in series [1] is listed as “very water soluble”.

For `O=C(O)CCCCCCCCCNC(=O)c1ccccc1O` [SNAD, N-(10-[2-hydroxybenzoyl]amino)decanoic acid], in series [2], the “absorbed by the gastro-intestinal tract” value is “greater than 90%”.

(Values after patent US8748383B2, “Method for treating bone related diseases and calcium disorders” (Novartis AG, priority 2003, dated 2014).)
